# Target: Dephosphorylated BTK (Homo sapiens, UniProt Q06187)
# Test: Test of activity inhibition against dephosphorylated BTK (mobility shift assay)
# Sequence of Dephosphorylated BTK (Q06187 whole entry): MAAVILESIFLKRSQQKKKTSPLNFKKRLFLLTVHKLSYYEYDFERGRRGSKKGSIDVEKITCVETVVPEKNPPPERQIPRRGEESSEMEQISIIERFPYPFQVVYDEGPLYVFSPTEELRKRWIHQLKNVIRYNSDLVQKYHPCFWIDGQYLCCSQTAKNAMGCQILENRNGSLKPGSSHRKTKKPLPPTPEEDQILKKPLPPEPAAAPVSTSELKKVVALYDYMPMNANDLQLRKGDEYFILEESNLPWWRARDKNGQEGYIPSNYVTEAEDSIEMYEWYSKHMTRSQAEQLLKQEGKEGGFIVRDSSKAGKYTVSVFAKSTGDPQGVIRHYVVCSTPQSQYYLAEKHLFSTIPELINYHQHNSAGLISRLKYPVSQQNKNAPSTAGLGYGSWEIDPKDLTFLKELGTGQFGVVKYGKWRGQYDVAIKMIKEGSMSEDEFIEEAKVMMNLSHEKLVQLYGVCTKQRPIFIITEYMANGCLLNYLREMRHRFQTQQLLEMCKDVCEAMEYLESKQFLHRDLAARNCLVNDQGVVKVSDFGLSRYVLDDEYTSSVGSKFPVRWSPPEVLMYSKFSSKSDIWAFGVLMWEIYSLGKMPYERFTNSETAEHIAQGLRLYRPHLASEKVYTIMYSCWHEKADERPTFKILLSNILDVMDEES
row,SMILES,IC50 [nM]
1,"CN1CCN(C)C(c2ccc(Nc3nc(N)nc(-c4cccc(N5Cc6cc(C(C)(C)C)sc6C5=O)c4CO)n3)cc2)C1=O (stereo not drawn) [Example 83, 5-[3-(4-Amino-6-{[4-(1,4-dimethyl-3-oxo-piperazin-2-yl)phenyl]ami-no}-1,3,5-triazin-2-yl)-2-(hydroxymethyl)phenyl]-2-(tert-butyl)-4H-thieno[2,3-c]pyr-rol-6(5H)-one]",1.8
2,"Cc1c(NC(=O)c2ccc(C(C)(C)C)cc2)cccc1-c1nc(N)nc(Nc2ccc(CN3CCOCC3)cc2)n1 [Example 38, N-[3-(4-Amino-6-{[4-(mor-pholinomethyl)phe-nyl]amino}-1,3,5-triazin-2-yl)-2-methylphe-nyl]-4-(tert-butyl)benz-amide]",1.2
3,"CC(C)(C)c1ccc(C(=O)Nc2cccc(-c3nc(N)nc(Nc4ccc(CN5CCC(O)CC5)cc4)n3)c2CO)cc1 [Example 94, N-{3-[4-Amino-6-({4-[(4-hydroxypiperidin-1-yl)methyl]phenyl}ami-no)-1,3,5-triazin-2-yl]-2-(hydroxymethyl)phe-nyl}-4-(tert-butyl) benzamide]",0.4
4,"Nc1nc(Nc2ccc(N3CCCC(O)C3)cc2)nc(-c2cccc(N3CCc4cc(C5CC5)cc(F)c4C3=O)c2CO)n1 (stereo not drawn) [Example 53, 2-[3-(4-Amino-6-{[4-(3-hydroxypiperidin-1-yl)phenyl]amino}-1,3,5-triazin-2-yl)-2-(hy-droxymethyl)phenyl]-6-cyclopropyl-8-fluoro-3,4-dihydroisoquinolin-1(2H)-one]",1.8
5,"Cc1c(-c2nc(N)nc(Nc3ccc(C(=O)N4CCOCC4)cc3)n2)cccc1N1Cc2cc(C(C)(C)C)sc2C1=O [Example 42, 5-[3-(4-Amino-6-{[4-(morpholine-4-carbonyl)phenyl]amino}-1,3,5-triazin-2-yl)-2-methylphenyl]-2-(tert-butyl)-4H-thieno[2,3-c]pyrrol-6(5H)-one]",6.5
6,"CN(C)CCCOc1ccc(Nc2nc(N)nc(-c3cccc(N4CCc5cc(C6CC6)cc(F)c5C4=O)c3CO)n2)cc1 [Example 183, 2-{3-[4-Amino-6-({4-[3-(dimethylamino)pro-poxy]phenyl}amino)-1,3,5-triazin-2-yl]-2-(hydroxymethyl)phenyl}-6-cyclopropyl-8-fluoro-3,4-dihydro-isoquinolin-1(2H)-one]",2.3
7,"Nc1nc(Nc2cnn(CCO)c2)nc(-c2cccc(N3CCc4cc(C5CC5)cc(F)c4C3=O)c2CO)n1 [Example 179, 2-[3-(4-Amino-6-{[1-(2-hydroxyethyl)-1H-py-razol-4-yl]amino}-1,3,5-triazin-2-yl)-2-(hy-droxymethyl)phenyl]-6-cyclopropyl-8-fluoro-3,4-dihydroisoquino-lin-1(1H)-one]",0.9
8,"CC(C)(C)n1cc(Nc2nc(N)nc(-c3cccc(N4CCc5cc(C6CC6)cc(F)c5C4=O)c3CO)n2)cn1 [Example 241, 2-[3-(4-Amino-6-{[1-(tert-butyl)-1H-pyrazol-4-yl]amino}-1,3,5-tri-azin-2-yl)-2-(hydroxy-methyl)phenyl]-6-cyclo-propyl-8-fluoro-3,4-dihydroisoquinolin-1(2H)-one]",0.6
9,"CC1(c2ccc(C(=O)Nc3cccc(-c4nc(N)nc(Nc5ccc(N6CCOCC6)cc5)n4)c3CO)cc2)CC1 [Example 192, N-(3-{4-Amino-6-[(4-morph-olinophenyl)amino]-1,3,5-triazin-2-yl}-2-(hydroxymethyl)phe-nyl)-4-(1-methylcyclo-propyl)benzamide]",0.7
10,"CCCn1cc(Nc2nc(N)nc(-c3cccc(N4CCc5cc(C6CC6)cc(F)c5C4=O)c3CO)n2)cn1 [Example 262, 2-(3-{4-Amino-6-[(1-pro-pyl-1H-pyrazol-4-yl)amino]-1,3,5-triazin-2-yl}-2-(hydroxymeth-yl)phenyl)-6-cyclopro-pyl-8-fluoro-3,4-dihy-droisoquinolin-1(2H)-one]",0.8
11,"CC(C)(C)c1ccc(C(=O)Nc2cccc(-c3nc(N)nc(Nc4ccc(NS(C)(=O)=O)cc4)n3)c2CO)cc1 [Example 112, N-[3-(4-Amino-6-{[4-(meth-ylsulfonamido)phe-nyl]amino}-1,3,5-tria-zin-2-yl)-2-(hydroxymeth-yl)phenyl]-4-(tert-butyl)benzamide]",1.1
12,"CCC(C)n1cc(Nc2nc(N)nc(-c3cccc(N4CCc5cc(C6CC6)cc(F)c5C4=O)c3CO)n2)cn1 (stereo not drawn) [Example 271, 2-[3-(4-Amino-6-{[1-(sec-butyl)-1H-pyrazol-4-yl]amino}-1,3,5-tri-azin-2-yl)-2-(hydroxy-methyl)phenyl]-6-cyclo-propyl-8-fluoro-3,4-dihydroisoquinolin-1 (2H)-one]",0.4
13,"Nc1nc(Nc2ccc(O)cc2)nc(-c2cccc(NC(=O)c3cc4c(s3)CCCC4)c2CO)n1 [Example 136, N-(3-{4-Amino-6-[(4-hy-droxyphenyl)amino]-1,3,5-triazin-2-yl}-2-(hydroxymethyl)phenyl)-4,5,6,7-tetrahydro benzo[b]thiophene-2-carboxamide]",1.3
14,"Nc1nc(Nc2ccc(OCCN3CCOCC3)cc2)nc(-c2cccc(NC(=O)c3cc4c(s3)CCCC4)c2CO)n1 [Example 138, N-[3-(4-Amino-6-{[4-(2-morpholinoethoxy)phe-nyl]amino}1,3,5-tri-azin-2-yl)-2-(hydroxy-methyl)phenyl]-4,5,6,7-tetrahydrobenzo[b]thio-phene-2-carboxamide]",1.7
15,"COCCN(CCOC)Cc1ccc(Nc2nc(N)nc(-c3cccc(NC(=O)c4ccc(C(C)(C)C)cc4)c3CO)n2)cc1 [Example 105, N-(3-{4-Amino-6-[(4-{[bis (2-methoxyethyl)ami-no]methyl}phenyl)ami-no)-1,3,5-triazin-2-yl]-2-(hydroxymethyl)phenyl}-4-(tert-butyl) benzamide]",0.9
16,"Nc1nc(Nc2cnn(CC(F)(F)F)c2)nc(-c2cccc(N3CCc4cc(C5CC5)cc(F)c4C3=O)c2CO)n1 [Example 240, 2-[3-(4-Amino-6-{[1-(2,2,2-trifluoroethyl)-1H-pyrazol-4-yl]amino}-1,3,5-triazin-2-yl)-2-(hydroxymethyl)phe-nyl]-6-cyclopropyl-8-fluoro-3,4-dihydroiso-quinolin-1(2H)-one]",1.1
17,"Cn1cc(Nc2nc(N)nc(-c3cccc(N4CCc5cc(C6CC6)cc(F)c5C4=O)c3CO)n2)cc1C(N)=O [Example 251, 4-({4-Amino-6-[3-(6-cyclo-propyl-8-fluoro-1-oxo-3,4-dihydroisoquino-lin-2(1H)-yl)-2-(hydroxy-methyl)phenyl]-1,3,5-triazin-2-yl}ami-no)-1-methyl-1H-pyr-role-2-carboxamide]",0.4
18,"Nc1nc(Nc2cnn(CCCO)c2)nc(-c2cccc(N3CCc4cc(C5CC5)cc(F)c4C3=O)c2CO)n1 [Example 225, 2-[3-(4-Amino-6-{[1-(3-hydroxypropyl)-1H-py-razol-4-yl]amino}-1,3,5-triazin-2-yl)-2-(hy-droxymethyl)phenyl]-6-cyclopropyl-8-fluoro-3,4-dihydro-isoquinolin-1(2H)-one]",1.2
19,"Cc1c(NC(=O)c2ccc(C(C)(C)C)cc2)cccc1-c1nc(N)nc(Nc2ccc(N3C[C@@H](C)O[C@@H](C)C3)cc2)n1 [Example 85, N-[3-(4-Amino-6-{[4-((2S, 6R)-2,6-dimethyl-morpholino)phenyl]ami-no}-1,3,5-triazin-2-yl)-2-methylphenyl]-4-(tert-butyl)benzamide]",5.8
20,"CC(C)(C)c1ccc(C(=O)Nc2cccc(-c3nc(N)nc(Nc4ccc(OCCOCCO)cc4)n3)c2CO)cc1 [Example 151, N-{3-[4-Amino-6-({4-[2-(2-hydroxyethoxy)eth-oxy]phenyl}amino)-1,3,5-triazin-2-yl]-2-(hy-droxymethyl)phenyl}-4-(tert-butyl)benzamide]",1.3
21,"Cc1c(NC(=O)c2ccc(C(C)(C)C)cc2)cccc1-c1nc(N)nc(Nc2ccc(N3CCNCC3)cc2)n1 [Example 88, N-[3-(4-Amino-6-{[4-(piperazin-1-yl)phenyl]amino}-1,3,5-triazin-2-yl)-2-methylphenyl]-4-(tert-butyl)benza-mide]",1.8
22,"CC(C)(C)c1ccc(C(=O)Nc2cccc(-c3nc(N)nc(Nc4ccc(N5CCNCC5)cc4)n3)c2CO)cc1 [Example 126, N-[3-(4-Amino-6-{[4-(piperazin-1-yl)phenyl]amino}-1,3,5-triazin-2-yl)-2-(hydroxymeth-yl)phenyl]-4-(tert-butyl)benzamide]",0.5
23,"CN1CCn2cc(Nc3nc(N)nc(-c4cccc(N5CCc6cc(C7CC7)cc(F)c6C5=O)c4CO)n3)cc2C1=O [Example 268, 2-(3-{4-Amino-6-[(2-meth-yl-1-oxo-1,2,3,4-tetra-hydropyrrolo[1,2-a]pyrazin-7-yl)amino]-1,3,5-triazin-2-yl}-2-(hydroxymethyl)phe-nyl)-6-cyclopropyl-8-fluoro-3,4-dihydroisoquinolin-1(2H)-one]",1.2
24,"COCCN(CCOC)Cc1ccc(Nc2nc(N)nc(-c3cccc(NC(=O)c4cc5c(s4)CCCC5)c3CO)n2)cc1 [Example 129, N-(3-{4-Amino-6-[(4-{[bis (2-methoxyethyl)a-mino]methyl}phenyl)ami-no]-1,3,5-triazin-2-yl}-2-(hydroxymethyl)phenyl)-4,5,6,7-tetra-hydrobenzo[b]thiophene-2-carboxamide]",0.6
25,"CC(C)(C)c1ccc(C(=O)Nc2cccc(-c3nc(N)nc(Nc4ccc5[nH]c(=O)[nH]c5c4)n3)c2CO)cc1 [Example 141, N-(3-{4-Amino-6-[(2-oxo-2,3-dihydro-1H-ben-zo[d]imidazol-5-yl)ami-no]-1,3,5-triazin-2-yl}-2-(hydroxymethyl)phenyl)-4-(tert-butyl) benzamide]",1.2
26,"CC(C)(C)c1ccc(C(=O)Nc2cccc(-c3ncnc(Nc4ccc(C(=O)N5CCOCC5)cc4)n3)c2CO)cc1 [Example 115, 4-(tert-Butyl)-N-[2-(hy-droxymethyl)-3-(4-{[4-(morpholine-4-carbo-nyl)phenyl]amino}-1,3,5-triazin-2-yl)phe-nyl]benzamide]",9.4
27,"Nc1nc(Nc2cnn(CC3CCOCC3)c2)nc(-c2cccc(N3CCc4cc(C5CC5)cc(F)c4C3=O)c2CO)n1 [Example 257, 2-{3-[4-Amino-6-({1-[(tetra-hydro-2H-pyran-4-yl)methyl]-1H-pyrazol-4-yl}amino)-1,3,5-triazin-2-yl]-2-(hydroxy-methyl)phenyl}-6-cyclo-propyl-8-fluoro-3,4-dihydroisoquinolin-1(2H)-one]",0.6

# — patent US20150011751A1, “NOVEL TRIAZINE DERIVATIVE” (CARNA BIOSCIENCES, INC., priority 2012, published 2015)
